Measured values from patent publication EP4772507A1, “AZAINDOLE COMPOUND AND MEDICAL DRUG” (Nippon Shinyaku Co., Ltd., priority 2023, dated 2025).

Experiments:
[1] = biological target: T1, C-terminal catalytic domain of MALT1 (amino acid residues 329-824) (Homo sapiens, UniProt Q9UDY8); test: MALT1 protease inhibitory activity (enzyme activity inhibition assay, fluorogenic substrate); type: biochemical; details: substrate Ac-Leu-Arg-Ser-Arg-AMC 50 µM; 30°C for 2 hours; fluorescence
T1 construct: C-terminal catalytic domain of MALT1 (amino acid residues 329-824)
T1 sequence (Q9UDY8 329-824): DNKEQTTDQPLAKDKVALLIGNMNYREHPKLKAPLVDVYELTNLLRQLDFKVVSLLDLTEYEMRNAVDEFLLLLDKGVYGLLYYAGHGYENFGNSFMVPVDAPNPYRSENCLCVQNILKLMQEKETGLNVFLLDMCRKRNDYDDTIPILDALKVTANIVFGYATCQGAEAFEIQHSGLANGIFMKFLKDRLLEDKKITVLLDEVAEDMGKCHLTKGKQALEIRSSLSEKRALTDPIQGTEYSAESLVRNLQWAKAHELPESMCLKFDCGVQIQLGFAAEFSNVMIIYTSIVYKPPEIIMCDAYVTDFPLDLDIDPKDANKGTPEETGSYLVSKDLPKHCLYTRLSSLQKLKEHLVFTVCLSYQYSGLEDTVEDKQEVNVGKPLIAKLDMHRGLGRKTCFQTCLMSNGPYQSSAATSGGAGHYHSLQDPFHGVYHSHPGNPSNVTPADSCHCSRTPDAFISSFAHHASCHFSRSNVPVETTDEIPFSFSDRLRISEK
Procedure: To evaluate the enzyme inhibitory activity of a test substance against MALT1, an enzyme activity inhibition assay was conducted using the C-terminal catalytic domain of MALT1 (amino acid residues 329-824).
A test substance was prepared at a concentration of 10 mM in dimethyl sulfoxide (DMSO) and further diluted with DMSO to obtain final concentrations of 1000, 100, 10, 1, and 0.1 µM. The solutions were further diluted 25-fold with an assay buffer to prepare final test substance solutions. The composition of the assay buffer was 200 mM Tris/HCl HEPES (pH 7.5), 0.8 M Na citrate, 100 µM DTT, and 0.05% CHAPS.
The test substance solution was added to a 384-well black plate (#6007270, PerkinElmer) in an amount of 5 µL per well (n = 2; final concentrations of 10000, 1000, 100, 10, 1, and 0.1 nM), followed by the addition of 10 µL of MALT1 enzyme and finally 5 µL of a substrate solution (Ac-Leu-Arg-Ser-Arg-AMC, Peptide Institute, Inc.; final concentration in the reaction mixture: 50 µM), and after stirring, the mixture was allowed to react at 30°C for 2 hours. Fluorescence (excitation: 380 nm, emission: 460 nm) was detected using a microplate reader (EnVision, PerkinElmer).
Using the measurement data, non-linear regression analysis based on a 2-parameter logistic model was performed with Spotfire (PerkinElmer) to calculate IC50.

[2] = system: HEK293/API2-MALT1/NF-κB reporter cells; test: Inhibition of reporter activity in HEK293/API2-MALT1/NF-κB reporter cells; type: cell-based; details: Homo sapiens, 24 hours with test substance, One-glo luminescence
Procedure: The API2-MALT1 fusion protein, expressed in MALT lymphoma, is known to constitutively activate the NF-κB pathway. To evaluate the inhibitory effect of the test substance on the NF-κB pathway in cells, a reporter activity inhibition test was conducted using HEK293/API2-MALT1/NF-κB reporter cells.
(§1) The test substance was prepared at a concentration of 10 mM in dimethyl sulfoxide (DMSO) and further diluted with DMSO to each of concentrations of 1000, 300, 100, and 10 µM. The solutions were further diluted 100-fold with DMEM medium containing 10% FBS to prepare test substance solutions.
HEK293/API2-MALT1/NF-κB reporter cells and 293T/CMV reporter cells (used as a negative control) were cultured in DMEM medium containing 10% FBS. Into a 384-well plate (#781080, Greiner), 6,000 cells were seeded in 30 µL per well, and after culturing for 24 hours, 3.3 µL of the adjusted test substance solution was added thereto (final concentrations: 10,000, 1,000, 100, and 10 nM). After culturing for 24 hours at 37°C in a 5% CO2 incubator, 33 µL of One-glo (Promega) was added to each well. After a 5-minute incubation at room temperature, luminescence was detected using a microplate reader (EnVision, PerkinElmer).
Using the measurement data, non-linear regression analysis was performed with the SAS system (SAS Institute Inc.) to estimate IC50.

OCI-Ly3 cell lines = test: Proliferation inhibition test, ABC-DLBCL cell line OCI-Ly3; type: cell-based; details: Homo sapiens; OCI-Ly3 (ABC-DLBCL, NF-κB pathway-dependent); 96 hours; Cell Counting Kit-8; read-out: Proliferation inhibitory activity against OCI-Ly3 IC50
Procedure: (§2) In ABC-DLBCL cell lines, the NF-κB pathway is constitutively activated due to mutations in the B-cell receptor pathway. To evaluate the proliferation inhibitory activity associated with the MALT1 inhibitory activity of the test substance, a proliferation inhibition test was conducted using ABC-DLBCL cell lines.
as §1, with “3,000, 1,000,” for “1000,”, “100, 30,” for “100,”, “IMDM” for “DMEM”
(§3) OCI-Ly3 cell lines (ABC-DLBCL, NF-κB pathway-dependent) were cultured in IMDM containing 10% FBS, and SU-DHL-4 cell lines (GCB-DLBCL, NF-κB pathway-independent, used as a negative control) were cultured in RPMI-1640 containing 10% FBS. Into a 96-well plate, 2,000 cells of the OCI-Ly3 cell line and 4,000 cells of the SU-DHL-4 cell line were seeded in 100 µL per well, and 11 µL of the adjusted test substance solution was added thereto (final concentrations: 10,000, 3,000, 1,000, 300, 100, 30, and 10 nM). After 96 hours of incubation at 37°C in a 5% CO2 incubator, 10 µL of Cell Counting Kit-8 (Dojindo Laboratories) was added to each well. After 4 hours of incubation at 37°C, absorbance at 450 nm was detected using a microplate reader (EnVision, PerkinElmer).
(§4) Using the measurement data, non-linear regression analysis based on a 2-parameter logistic model was performed with Spotfire (PerkinElmer) to estimate IC50 values.

SU-DHL-4 cell lines = test: Proliferation inhibition test, GCB-DLBCL cell line SU-DHL-4 (negative control line); type: cell-based; details: Homo sapiens; SU-DHL-4 (GCB-DLBCL, NF-κB pathway-independent, negative control); 96 hours; Cell Counting Kit-8; read-out: Proliferation inhibitory activity against SU-DHL-4 IC50
Procedure: as §2
as §1, with “3,000, 1,000,” for “1000,”, “100, 30,” for “100,”, “IMDM” for “DMEM”
as §3, §4

[3] = Central nervous system (CNS) penetration study in mice; type: in vivo; details: female, BALB/cCrSlc, mouse, ip, 30 mg/kg intraperitoneally, three hours later, cerebrum and plasma by LC-MS/MS, read-out: Brain-to-plasma concentration ratio (Kp value)
Procedure: To evaluate the central nervous system (CNS) penetration of a test substance, a central nervous system penetration study was conducted using mice.
Six-week-old female BALB/cCrSlc mice (Japan SLC) were used. The test substance suspended in 0.5% methylcellulose was intraperitoneally administered to mice at a dose of 30 mg/kg. Three hours later, blood was collected from the abdominal vena cava under isoflurane anesthesia, and plasma was obtained by centrifugation. After exsanguination from the abdominal vena cava, the cerebrum was collected.
The drug concentrations of the collected plasma and cerebrum were measured by LC-MS/MS. To determine the brain penetration of the drug, the brain-to-plasma concentration ratio (Kp value) was calculated.

Compound `C[C@@H]1CC(C(=O)c2cn(C3COC3)c3nc(-n4nccn4)c(Cl)cc23)C[C@@H](C)N1c1ncc(F)cc1I` (stereo partly drawn) [Example 1, [5-chloro-1-(oxetan-3-yl)-6-(2H-1,2,3-triazol-2-yl)-1H-pyrrolo[2,3-b]pyridin-3-yl][(2R,6R)-1-(5-fluoro-3-iodopyridin-2-yl)-2,6-dimethylpiperidin-4-yl]methanone] has an IC50 [1] of 45 nM, an IC50 [2] of 170 nM and an IC50 (OCI-Ly3 cell lines) of 620 nM. For the same compound, the IC50 (SU-DHL-4 cell lines) was 5.4 µM and the Kp at 3 h [3] was 1.6.

With `C[C@@H]1CC(C(=O)c2cn(C3CC3)c3nc(-n4nccn4)c(Cl)cc23)C[C@@H](C)N1c1ncc(F)cc1I` (stereo partly drawn) [Example 16, [5-chloro-1-cyclopropyl-6-(2H-1,2,3-triazol-2-yl)-1H-pyrrolo[2,3-b]pyridin-3-yl][(2R,6R)-1-(5-fluoro-3-iodopyridin-2-yl)-2,6-dimethylpiperidin-4-yl]methanone] the IC50 [1] was 310 nM, the IC50 (OCI-Ly3 cell lines) was 720 nM and the IC50 (SU-DHL-4 cell lines) was 9.7 µM. For the same compound, the Kp at 3 h [3] was 0.28.

In the case of `Cn1cc(C(=O)c2cnn(-c3ccnc4sccc34)c2C(F)(F)F)c2cc(Cl)c(-n3nccn3)nc21` [Example 24, [5-chloro-1-methyl-6-(2H-1,2,3-triazol-2-yl)-1H-pyrrolo[2,3-b]pyridin-3-yl][1-(thieno[2,3-b]pyridin-4-yl)-5-(trifluoromethyl)-1H-pyrazol-4-yl]methanone], the IC50 [1] is reported as 12 nM, the IC50 [2] is reported as 130 nM and the IC50 (OCI-Ly3 cell lines) is reported as 180 nM. The IC50 (SU-DHL-4 cell lines) was 9.1 µM.

For `O=C(c1cnn(-c2cncc3sccc23)c1C(F)(F)F)c1cn(C2COC2)c2nc(-n3nccn3)c(Cl)cc12` [Example 25, [5-chloro-1-(oxetan-3-yl)-6-(2H-1,2,3-triazol-2-yl)-1H-pyrrolo[2,3-b]pyridin-3-yl][1-(thieno[2,3-c]pyridin-4-yl)-5-(trifluoromethyl)-1H-pyrazol-4-yl]methanone], the IC50 [1] was 19 nM, the IC50 [2] was 180 nM and the IC50 (OCI-Ly3 cell lines) was 440 nM. It also gave an IC50 (SU-DHL-4 cell lines) of 9 µM.

With `Cn1cc(C(=O)c2cnn(-c3cccn4nccc34)c2C(F)(F)F)c2cc(Cl)c(-n3nccn3)nc21` [Example 27, [5-chloro-1-methyl-6-(2H-1,2,3-triazol-2-yl)-1H-pyrrolo[2,3-b]pyridin-3-yl][1-(pyrazolo[1,5-a]pyridin-4-yl)-5-(trifluoromethyl)-1H-pyrazol-4-yl]methanone] the IC50 [1] was 5.8 nM, the IC50 [2] was 280 nM and the IC50 (OCI-Ly3 cell lines) was 380 nM. For the same compound, the IC50 (SU-DHL-4 cell lines) was 7.2 µM.

Work on `O=C(c1cnn(-c2cccc3c(=O)[nH]ccc23)c1C(F)(F)F)c1cn(C2CCC2)c2nc(-n3nccn3)c(Cl)cc12` [Example 30, 5-{4-[5-chloro-1-cyclobutyl-6-(2H-1,2,3-triazol-2-yl)-1H-pyrrolo[2,3-b]pyridine-3-carbonyl]-5-(trifluoromethyl)-1H-pyrazol-1-yl}isoquinolin-1(2H)-one] yielded an IC50 [1] of 44 nM, an IC50 [2] of 500 nM and an IC50 (OCI-Ly3 cell lines) of 870 nM. It also gave an IC50 (SU-DHL-4 cell lines) of over 10 µM.

In the case of `Cn1cc(C(=O)c2cnn(-c3cccn4c(=O)cccc34)c2C(F)(F)F)c2cc(Cl)c(-n3nccn3)nc21` [Example 31, 9-{4-[5-chloro-1-methyl-6-(2H-1,2,3-triazol-2-yl)-1H-pyrrolo[2,3-b]pyridine-3-carbonyl]-5-(trifluoromethyl)-1H-pyrazol-1-yl}-4H-quinolizin-4-one], the IC50 [1] is reported as 25 nM, the IC50 [2] is reported as 73 nM and the IC50 (OCI-Ly3 cell lines) is reported as 150 nM. For the same compound, the IC50 (SU-DHL-4 cell lines) was over 10 µM.

Compound `COc1nc2c(cc1Cl)c(C(=O)c1cnn(-c3cncc4c(F)cccc34)c1C(F)(F)F)cn2C` [Example 32, (5-chloro-6-methoxy-1-methyl-1H-pyrrolo[2,3-b]pyridin-3-yl)[1-(8-fluoroisoquinolin-4-yl)-5-(trifluoromethyl)-1H-pyrazol-4-yl]methanone] has an IC50 [1] of 54 nM, an IC50 [2] of 280 nM and an IC50 (OCI-Ly3 cell lines) of 140 nM. For the same compound, the IC50 (SU-DHL-4 cell lines) was over 10 µM.
